Reference: patent US20220016115A1, “USP19 INHIBITORS FOR USE IN THERAPY” (ALMAC DISCOVERY LIMITED, priority 2018, published 2022)

Experiments:
[1] = test system: diet-induced obese (DIO) mouse; test: Diet-induced obesity mouse model: body weight, DEXA and carcass composition; type: in vivo
Description: (§1) To assess obesity and insulin resistance, a diet-induced obesity mouse model was used.
(§2) Male C57BL6/J mice were continuously provided with high-fat diet (D12451, 45% kcal as fat; Research Diets, New Jersey, USA) and filtered tap water ad libitum for the duration of the study. From day 0, mice were administered vehicle i.p. BID, USP19 inhibitor (ADC-141) i.p. BID at 5 mg/kg or 25 mg/kg, or positive control liraglutide 0.1 mg/kg s.c. BID. Mice were allocated to treatment groups to balance the groups on the basis of body weight, food and water intake prior to the start of treatment.
(§3) Body weight was measured daily. On Day 13, body composition was assessed by DEXA. On Day 15, fasting glucose and insulin levels were measured before and during an oral glucose tolerance test (OGTT) to assess improvements in glucose control. The OGTT was performed following an overnight fast. […] An OGTT was performed the following morning (approx. 16h post fast). Mice were dosed with vehicle or test compound (starting at 08.45) to a timed schedule 30 minutes prior to the administration of the glucose challenge (2.0 g/kg po). Blood samples were taken immediately prior to dosing (B1), immediately prior to glucose administration (B2) and 15, 30, 60 and 120 minutes after glucose administration.
After OGTT, mice were humanely killed and carcass composition was assessed. The carcass was weighed and stored frozen and the chemical composition of each carcass (fat, protein, water and ash) was determined using classical techniques. Carcass water was determined by freeze-drying the carcasses to constant weight for 2 weeks. Carcass fat was determined on samples of the dry powdered carcasses using a modified Soxhlet extraction protocol (petroleum ether at 40-60° C.) with a Tecator Soxtec 2050 system (Foss UK Ltd, Wheldrake, UK) according to the manufacturer's recommended protocol. Carcass protein was determined using a micro-Kjeldahl procedure on samples of the dry powdered carcasses using a Tecator 2012 digestion block and 2200 distilling unit (Foss UK Ltd). Residual carcass ash was determined by firing samples of the dry powdered carcasses at high temperatures using a muffle ashing furnace (Carbolite OAF 11/1). Repeat determinations of the chemical analysis parameters were performed if necessary (e.g. if the duplicate samples differed by more than 1%). Data for each body composition parameter (fat, protein, water and ash) was determined as g/carcass and % total. Final carcass weights were also analysed as a direct comparison.

USP19 = target: T1, USP19 (Mus musculus, UniProt Q3UJD6); test: Cell target engagement, mouse skeletal muscle cell line; type: cell-based
T1 construct: endogenous in cells
T1 sequence (Q3UJD6 1-1360): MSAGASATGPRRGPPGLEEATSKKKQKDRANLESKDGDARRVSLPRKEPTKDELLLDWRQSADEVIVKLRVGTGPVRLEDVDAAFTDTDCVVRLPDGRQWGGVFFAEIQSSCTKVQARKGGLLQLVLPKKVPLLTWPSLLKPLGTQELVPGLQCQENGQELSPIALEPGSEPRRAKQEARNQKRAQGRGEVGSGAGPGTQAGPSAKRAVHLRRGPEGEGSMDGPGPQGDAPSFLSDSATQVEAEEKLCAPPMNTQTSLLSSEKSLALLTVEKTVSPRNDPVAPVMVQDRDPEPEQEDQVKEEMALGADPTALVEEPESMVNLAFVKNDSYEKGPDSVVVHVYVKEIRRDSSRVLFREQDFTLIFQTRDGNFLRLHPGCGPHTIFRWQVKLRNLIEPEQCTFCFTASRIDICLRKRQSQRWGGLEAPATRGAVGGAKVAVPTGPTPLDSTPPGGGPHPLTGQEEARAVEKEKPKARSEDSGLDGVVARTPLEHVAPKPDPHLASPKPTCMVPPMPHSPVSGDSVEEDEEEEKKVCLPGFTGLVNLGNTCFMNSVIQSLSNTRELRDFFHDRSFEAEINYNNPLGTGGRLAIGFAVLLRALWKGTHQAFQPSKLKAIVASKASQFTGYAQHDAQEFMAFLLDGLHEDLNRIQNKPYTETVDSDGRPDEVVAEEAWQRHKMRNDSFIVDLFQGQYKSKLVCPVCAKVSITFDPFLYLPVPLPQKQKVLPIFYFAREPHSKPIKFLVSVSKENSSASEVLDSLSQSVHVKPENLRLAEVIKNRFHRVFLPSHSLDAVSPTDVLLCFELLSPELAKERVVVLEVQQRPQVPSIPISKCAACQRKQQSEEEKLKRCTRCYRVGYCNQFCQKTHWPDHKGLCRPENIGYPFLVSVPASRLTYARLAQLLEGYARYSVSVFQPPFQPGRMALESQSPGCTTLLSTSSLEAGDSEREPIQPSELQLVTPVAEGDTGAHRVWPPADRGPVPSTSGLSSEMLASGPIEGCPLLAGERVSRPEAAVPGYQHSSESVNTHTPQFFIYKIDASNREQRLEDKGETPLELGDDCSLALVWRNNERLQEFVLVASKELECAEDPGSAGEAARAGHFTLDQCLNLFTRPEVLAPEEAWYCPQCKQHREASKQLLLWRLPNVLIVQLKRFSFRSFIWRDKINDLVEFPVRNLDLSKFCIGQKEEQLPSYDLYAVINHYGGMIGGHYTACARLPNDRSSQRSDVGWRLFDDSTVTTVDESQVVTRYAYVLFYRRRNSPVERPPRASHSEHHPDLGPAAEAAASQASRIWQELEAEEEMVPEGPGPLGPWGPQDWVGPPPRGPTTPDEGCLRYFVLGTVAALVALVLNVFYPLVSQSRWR
Description: Cells from a breast cancer cell line, a neuroblastoma cell line and a mouse skeletal muscle cell line were treated with a USP19 inhibitor compound (ADC-141, corresponding to Example 212 provided herein) for 2 hrs, lysed (lysis buffer: 50 mM Tris pH 7.4; 150 mM NaCl; 5 mM MgCl2; 0.5 mM EDTA; 0.5% NP40; 10% Glycerol; 2 mM DTT) and Ubiquitin-propargylamine (Ub-PA; UbiQ) or Ubiquitin-vinyl methyl ester (Ub-VME; Almac Sciences Scotland Limited) was then added. Samples were analysed by western blotting probing for USP19 (EC50 determined by densitometry).

[2] = test system: diet-induced obese (DIO) mouse; test: Oral glucose tolerance test (OGTT) in diet-induced obese mice; type: in vivo
Description: as §1, §2, §3

[3] = ADC-141 25 mg/kg ip bid, liraglutide 0.1 mg/kg sc bid
[4] = ADC-141 25 mg/kg ip bid, liraglutide 0.1 mg/kg sc bid, vs vehicle
[5] = DEXA, ADC-141 25 mg/kg ip bid, liraglutide 0.1 mg/kg sc bid

C[C@H](CC1CCCCC1)C(=O)N1CC[C@@](O)(Cn2cc(C(=O)N3CCNCC3)c(-c3ccccc3)cc2=O)C2(CCCC2)C1 [ADC-141, 1-(((S)-7-((R)-3-Cyclohexyl-2-methylpropanoyl)-10-hydroxy-7-azaspiro[4.5]decan-10-yl)methyl)-4-phenyl-5-(piperazine-1-carbonyl)pyridin-2(1H)-one]
relative water content of the carcass (percentage of total carcass mass) ([1]; ADC-141 5 mg/kg ip bid): no effect
carcass water content (g) ([1]; ADC-141 5 mg/kg ip bid, vs vehicle): no significant effect
carcass protein ([1]; ADC-141 5 mg/kg ip bid, vs vehicle-treated animals): no significant changes
carcass percentage fat ([1]; ADC-141 25 mg/kg ip bid): −14.6%
differences in body weights on the final day of the study [1, 3]: ~13%
loss of fat as share of the total weight lost [1, 3]: 79%
percent protein (percentage of total carcass mass), increase [1, 3]: 6.0%
reduction in carcass fat (g) from controls [1, 3]: 24.9%
relative water content of the carcass (percentage of total carcass mass) [1, 3]: +11.4%
carcass ash content (g) [1, 4]: −9.6%
carcass protein content (g) [1, 4]: −7.2%
carcass water content (g) [1, 4]: no significant effect
reduction in fat mass compared to vehicle treated controls ([1]; DEXA Day 13, liraglutide 0.1 mg/kg sc bid, dose of USP19 inhibitor not printed at place): 24%
lean body mass change ([1]; DEXA Day 13, vs vehicle, not significant (p>0.05)): −3%
total tissue mass ([1]; DEXA analysis): significant reduction
fat mass % (percentage of total tissue mass) [1, 5]: significantly decreased
lean mass % (percentage of total tissue mass) [1, 5]: increased
cumulative and average food intake ([1]; compared to vehicle control mice (p<0.001)): reduction
carcass weight compared to vehicle-treated controls ([1]; two weeks, ADC-141 25 mg/kg ip bid, liraglutide 0.1 mg/kg sc bid): ~−12%
average weekly body weight gain ([1]; week 1, ADC-141 25 mg/kg ip bid, liraglutide 0.1 mg/kg sc bid, vs vehicle): significantly decreased
average weekly body weight gain ([1]; week 2, ADC-141 25 mg/kg ip bid, liraglutide 0.1 mg/kg sc bid, vs vehicle): significantly decreased
cell permeability (USP19): good cell permeability
EC50 (USP19 target engagement, densitometry) (USP19; 2 hrs treatment, Ub-PA or Ub-VME probe, western blot): low nanomolar
insulin AUC ([2]; 0-60 and 0-120 minutes, 25 mg/kg ip bid): reduced
glucose AUCB2 ([2]; 0-120 minutes only, 25 mg/kg ip bid, vs vehicle): significantly reduced
glucose AUC ([2]; 25 mg/kg ip bid, vs vehicle): significantly reduced
plasma insulin ([2]; 30, 60 and 120 minutes post-glucose, 25 mg/kg ip bid): reduced
plasma glucose ([2]; all time points pre- and post-glucose, 25 mg/kg ip bid, vs vehicle): significantly reduced
fasting plasma glucose ([2]; following 2 weeks of treatment): effective at decreasing
